Results as given in patent US12024510B2, “Pyrazolopyridine-diamides, their use as insecticide and processes for preparing the same” (PI INDUSTRIES LTD., priority 2017, dated 2024).

Legend:
Assay type in all cases: in vivo
[1] = tested on: Plutella xylostella; assay: whole plant or invertebrate; conditions: foliar, cabbage leaf dip, second instar larvae, dead and moribund combined, 72 h after release
Outline: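 Leaf-dip bioassay: second-instar larvae, singly, fed on cabbage leaves dipped 10 s in test dispersion (bead-milled, diluted with 0.01% Triton-X to test concentration) and dried 20 min. Held at 25 °C, 70% RH; % mortality counts dead and moribund at 72 h.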

[2] = tested on: Helicoverpa armigera; assay: Helicoverpa armigera diet incorporation method; conditions: third instar larvae, dead and moribund combined, 96 h after release
Outline: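 Third-instar larvae, starved, were placed singly on diet pieces containing test dispersion (bead-milled in surfactant, particles under 2 μm, 500 ppm stock then diluted). Trays kept at 25° C. and 70% RH; mortality counted at 96 h, moribund larvae counted with dead.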

[3] = tested on: Spodoptera litura; assay: Spodoptera litura diet incorporation method; conditions: third instar larvae, dead and moribund combined, 96 h after release
Experimental: Test Solutions were Prepared According to the Procedure Described Herein Below (500 PPM):
• 1. Eppendorf Vortex mixer (ThermoMixer C) and 1.5 mL Eppendorf tubes • 2. Zirconia (Zirconium-Yttrium) beads having diameter of 0.8 to 1.0 mm • 3. Microscope • 4. Beaker 100 mL • 5. Micro-pipette Reagents: • 1. Surfactant Solution • 2. De-mineralized (DM) Water • 1. Weigh 10 mg of the compound of the present invention to be tested in an Eppendorf Tube. • 2. Add 200 mg of the Surfactant Solution into the tube. • 3. Add 600 mg of Zirconia beads into the above mixture. • 4. Fix the tube in Eppendorf Vortex mixer and start vortexing at 2000 rpm. • 5. Mix on Vortex mixer for 30 minutes. After 30 minutes, observe the sample over a microscope at 400× resolution. • 6. If the Maximum particle size is more than 5 μm or average particle size is more than 2 μm or the particle size distribution is uneven, continue vortexing for another 30 minutes and again check the particle size using the microscope. Continue till the average particle size is below 2 microns. • 7. When the required particle size is achieved, add 1.0 mL DM water into the tube, close the cap, shake the tube thoroughly and transfer the contents, along with the beads, into a beaker. • 8. To rinse the tube, add another 1.0 mL of DM water into the tube, close the cap, shake well and transfer this into the same beaker. • 9. Repeat Step no. 8 one more time so that the tube is rinsed well and the compound of the present invention to be tested is transferred to the beaker. • 10. Add 16.8 mL of DM water into the beaker and stir well. • 11. The homogeneous dispersion can then be decanted into a glass vial, immediately, to separate the Zirconia beads. • 12. Immediately use this sample for biological testing. • 13. Further dilutions can be prepared by taking appropriate quantity of the aliquot of Step 10, immediately after stirring, and diluting as per requirement. The sample solution must be well mixed just before biological testing.
Diet incorporation method was used, in which semi-synthetic diet was incorporated into the test solution when the temperature is approximately 50° C. in the bioassay containers and stirred thoroughly for properly mixing and then was allowed to cool for 30 min. The solidified diet was cut into equal pieces, and then each piece was transferred in one cell in Bio-assay trays. A single third instar starved larva was released into each of these cells of bioassay trays and the tray was covered with the lid. The bio-assay trays were kept under laboratory conditions at a temperature of 25° C. and Relative Humidity of 70%. Observations on dead, moribund and live larvae were recorded at 96 h after the release of larvae. Percent mortality was calculated by combining dead and moribund larvae. The following compound numbers

Measured: mortality at 300 ppm

Cc1cc2ccnn2c(C(=O)NC(C)C(F)(F)F)c1NC(=O)c1cc(Br)nn1-c1ncccc1Cl (stereo not drawn) [Compound 187, 6-(3-bromo-1-(3-chloropyridin-2-yl)-1H-pyrazole-5-carboxamido)-5-methyl-N-(1,1,1-trifluoropropan-2-yl)pyrazolo[1,5-a]pyridine-7-carboxamide]
> 70%: all assays above

Cc1cc2ccnn2c(C(=O)NCC(F)(F)F)c1NC(=O)c1cc(Br)nn1-c1ncccc1Cl [Compound 96, 6-(3-bromo-1-(3-chloropyridin-2-yl)-1H-pyrazole-5-carboxamido)-5-methyl-N-(2,2,2-trifluoroethyl)pyrazolo[1,5-a]pyridine-7-carboxamide]
> 70%: all assays above

Cc1cc2ccnn2c(C(=O)NCC#N)c1NC(=O)c1cc(OCC(F)(F)F)nn1-c1ncccc1Cl [Compound 15, 6-(1-(3-chloropyridin-2-yl)-3-(2,2,2-trifluoroethoxy)-1H-pyrazole-5-carboxamido)-N-(cyanomethyl)-5-methylpyrazolo[1,5-a]pyridine-7-carboxamide]
> 70%: all assays above

COc1cc(C(=O)Nc2c(C)cc3ccnn3c2C(=O)NC(C)C)n(-c2ncccc2Cl)n1 [Compound 32, 6-(1-(3-chloropyridin-2-yl)-3-methoxy-1H-pyrazole-5-carboxamido)-N-isopropyl-5-methylpyrazolo[1,5-a]pyridine-7-carboxamide]
> 70%: all assays above

CNC(=O)c1c(NC(=O)c2cc(Cn3nnc(C(F)(F)F)n3)nn2-c2ncccc2Cl)c(Cl)cc2ccnn12 [Compound 153, 5-chloro-6-(1-(3-chloropyridin-2-yl)-3-((5-(trifluoromethyl)-2H-tetrazol-2-yl)methyl)-1H-pyrazole-5-carboxamido)-N-methylpyrazolo[1,5-a]pyridine-7-carboxamide]
> 70%: all assays above

COc1cc(C(=O)Nc2c(C)cc3ccnn3c2C(=O)NC2CSC2)n(-c2ncccc2Cl)n1 [Compound 215, 6-(1-(3-chloropyridin-2-yl)-3-methoxy-1H-pyrazole-5-carboxamido)-5-methyl-N-(thietan-3-yl)pyrazolo[1,5-a]pyridine-7-carboxamide]
> 70%: all assays above

COc1cc(C(=O)Nc2c(C)cc3ccnn3c2C(=O)NC2CC2)n(-c2ncccc2Cl)n1 [Compound 26, 6-(1-(3-chloropyridin-2-yl)-3-methoxy-1H-pyrazole-5-carboxamido)-N-cyclopropyl-5-methylpyrazolo[1,5-a]pyridine-7-carboxamide]
> 70%: all assays above

CCCNC(=O)c1c(NC(=O)c2cc(Br)nn2-c2ncccc2Cl)c(Br)cc2ccnn12 [Compound 50, 5-bromo-6-(3-bromo-1-(3-chloropyridin-2-yl)-1H-pyrazole-5-carboxamido)-N-propylpyrazolo[1,5-a]pyridine-7-carboxamide]
> 70%: all assays above

COc1cc(C(=O)Nc2c(Cl)cc3ccnn3c2C(=O)NC(C)C)n(-c2ncccc2Cl)n1 [Compound 133, 5-chloro-6-(1-(3-chloropyridin-2-yl)-3-methoxy-1H-pyrazole-5-carboxamido)-N-isopropylpyrazolo[1,5-a]pyridine-7-carboxamide]
> 70%: all assays above

COc1cc(C(=O)Nc2c(C)cc3ccnn3c2C(=O)NC2COC2)n(-c2ncccc2Cl)n1 [Compound 46, 6-(1-(3-chloropyridin-2-yl)-3-methoxy-1H-pyrazole-5-carboxamido)-5-methyl-N-(oxetan-3-yl)pyrazolo[1,5-a]pyridine-7-carboxamide]
> 70%: all assays above

Cc1cc2ccnn2c(C(=O)NC(C)C)c1NC(=O)c1cc(Oc2cc(C(F)(F)F)nn2C)nn1-c1ncccc1Cl [Compound 71, 6-(1-(3-chloropyridin-2-yl)-3-((1-methyl-3-(trifluoromethyl)-1H-pyrazol-5-yl)oxy)-1H-pyrazole-5-carboxamido)-N-isopropyl-5-methylpyrazolo[1,5-a]pyridine-7-carboxamide]
> 70%: all assays above

C=CCNC(=O)c1c(NC(=O)c2cc(OCC(F)(F)F)nn2-c2ncccc2Cl)c(C)cc2ccnn12 [Compound 20, N-allyl-6-(1-(3-chloropyridin-2-yl)-3-(2,2,2-trifluoroethoxy)-1H-pyrazole-5-carboxamido)-5-methylpyrazolo[1,5-a]pyridine-7-carboxamide]
> 70%: all assays above

Cc1cc2ccnn2c(C(=O)NC(C)(C)C)c1NC(=O)c1cc(OCC(F)(F)F)nn1-c1ncccc1Cl [Compound 19, N-(tert-butyl)-6-(1-(3-chloropyridin-2-yl)-3-(2,2,2-trifluoroethoxy)-1H-pyrazole-5-carboxamido)-5-methylpyrazolo[1,5-a]pyridine-7-carboxamide]
> 70%: all assays above

O=C(Nc1c(Cl)cc2ccnn2c1C(=O)NCC1CC1)c1cc(Br)nn1-c1ncccc1Cl [Compound 140, 6-(3-bromo-1-(3-chloropyridin-2-yl)-1H-pyrazole-5-carboxamido)-5-chloro-N-(cyclopropylmethyl)pyrazolo[1,5-a]pyridine-7-carboxamide]
> 70%: all assays above

CCNC(=O)c1c(NC(=O)c2cc(Br)nn2-c2ncccc2Cl)ccc2ccnn12 [Compound 157, 6-(3-bromo-1-(3-chloropyridin-2-yl)-1H-pyrazole-5-carboxamido)-N-ethylpyrazolo[1,5-a]pyridine-7-carboxamide]
> 70%: all assays above

O=C(Nc1c(Br)cc2ccnn2c1C(=O)NCC1CC1)c1cc(Br)nn1-c1ncccc1Cl [Compound 54, 5-bromo-6-(3-bromo-1-(3-chloropyridin-2-yl)-1H-pyrazole-5-carboxamido)-N-(cyclopropylmethyl)pyrazolo[1,5-a]pyridine-7-carboxamide]
> 70%: all assays above

Cc1cc2ccnn2c(C(=O)NC(C)(C)CO)c1NC(=O)c1cc(Br)nn1-c1ncccc1Cl [Compound 196, 6-(3-bromo-1-(3-chloropyridin-2-yl)-1H-pyrazole-5-carboxamido)-N-(1-hydroxy-2-methylpropan-2-yl)-5-methylpyrazolo[1,5-a]pyridine-7-carboxamide]
> 70%: all assays above

CCCNC(=O)c1c(NC(=O)c2cc(Br)nn2-c2ncccc2Cl)c(Cl)cc2ccnn12 [Compound 151, 6-(3-bromo-1-(3-chloropyridin-2-yl)-1H-pyrazole-5-carboxamido)-5-chloro-N-propylpyrazolo[1,5-a]pyridine-7-carboxamide]
> 70%: all assays above
